Assay results from patent publication US4219550A, “Cis- and trans- octahydropyridopyrrolobenzheterocycles” (E. I. Du Pont de Nemours and Company, priority 1978, dated 1980).
Structures can show the parent of a compound that is named as a salt. Where two headings read alike, the source gives them in different places.

How the values were obtained:
[1] = system: tetrabenazine-induced sedation and depression; test: Mouse tetrabenazine (TBZ) antagonism (ptosis and exploratory activity); type: in vivo, Carworth CF1 S female mice
Procedure: This mouse test is predictive of human antidepressant response (Everett, "The Dopa Response Potentiation Test and Its Use in Screening for Antidepressant Drugs", pp 164 in "Antidepressant Drugs" [Proceedings of the First International Symposium], S. Garattini and M. N. G. Dukes, eds., 1967).
Groups of 10 Carworth CF1 S female mice, 18-21 g each, were fasted 1.5 hours and were intubated with antagonist compounds at oral doses of 0, 0.33, 1, 3, 9, 27 and 81 mg/kg in 0.20 ml of 1% Methocel®. The mice were challenged 30 minutes later with tetrabenazine (as the methane-sulfonate), 32 mg/kg intraperitoneally (dissolved in 0.20 ml 0.05 M KCl at pH 2.0). One hour after antagonist (30 minutes after tetrabenazine), the mice were examined for signs of exploratory activity and ptosis (eyelid closure). Normal exploratory activity (relief from sedation) was recorded when a mouse lifted by the tail from a group of 10 in a testing box and placed on a stainless steel testing box lid (12.5"×8" with 0.33" mesh) either turned its head horizontally 30° in both directions or moved to the edge of the screen within 10 seconds after being placed on the screen. Relief from ptosis was recorded when exactly two seconds after placing the mouse facing the observer, lid closure was less than 50% in both eyes.

[2] = system: conditioned avoidance response; test: Rat conditioned avoidance response (CAR); type: in vivo, male Holtzman rats
Procedure: The tranquilizing activity of the compounds of this invention is evidenced by tests conducted in male white rats in which a conditioned avoidance response is interrupted following an oral dose of the drug. This test is predictive of human response to an antipsychotic (tranquilizing) drug. The method of Clark was used (Clark, R., Psychon. Sci. 6, 11, 1966).
The test animals, male Holtzman rats between 90 and 115 grams, were food deprived 18 hours prior to avoidance training. Test drugs were suspended in 0.5% Methocel.
The equipment consisted of a plexiglas pit 5"×5"×9" fitted with a metal floor grid which can be electrified via the output of a shock generator. The top end of the pit opened into a surrounding platform 12"×3-1/2" on all four sides. This pit fitted into a larger plexiglas housing which served both to support the pit and to distribute wires to (a) the electrified floor grid, (b) a sound speaker used for stimulus presentation and (c) a 40 watt incandescent bulb also used for stimulus presentation. The main housing was separate from but attached to a metal frame which supported a noise generator, shock generator, and timing/sequence device. The noise generator was a Grason-Stadler Model 1724, used in the 50 KHz bandwidth with output of -10DB. The two-line shock generator supplied a constant A/C current of 0.19 milliamperes, via constantly scrambled 10 HZ square wave output.
The rats were trained by giving each of them four successive trials 15 to 20 minutes apart with a conditioned stimulus (CS) of a 40-watt incandescent bulb and a white noise plus an unconditioned stimulus (US) of a 0.19 milliampere scrambled shock. Following the four CS+US trials each animal was given an avoidance learning criterion trial in which the CS was presented alone 10 seconds prior to the US.
Rats were dosed orally with compound of the invention or standard drug, 20 rats/dose. Each rat was tested at 60, 120 and 240 minutes after drug.

[3] = system: tetrabenazine-induced sedation and depression; test: Mouse tetrabenazine (TBZ) antagonism (ptosis and exploratory activity); type: in vivo, Carworth CF1 S female mice; conditions: 30 mg/kg, footnote mark stands under PTOSIS
[4] = po, 1 h, read-out: ED50 TBZ ANTAG. EXPLOR.
[5] = po, 1 h, read-out: ED50 TBZ ANTAG. PTOSIS

Row | Compound | ED50 [1, 4] | ED50 [1, 5] | ED50 ([2]; po, read-out: ED50 CAR AVOID.) | ED50 ([2]; po, read-out: ED50 CAR ESCAPE) | ED50 ([2]; oral, 20 rats/dose, tested at 60, 120 and 240 min, avoidance, read-out: ED50 CAR AVOID.) | ED50 ([1]; oral antagonist, tetrabenazine 32 mg/kg i.p. 30 min later, examined 1 h after antagonist, exploratory activity (relief from sedation), read-out: ED50 TBZ ANTAG. EXPLOR.) | ED50 ([1]; oral antagonist, tetrabenazine 32 mg/kg i.p. 30 min later, examined 1 h after antagonist, relief from ptosis, read-out: ED50 TBZ ANTAG. PTOSIS) | TBZ ANTAG. activity, subcutaneous (footnote *) [3]
1 | c1cc2c3c(c1)[C@@H]1CN(C4CC4)CC[C@@H]1N3CCS2 (relative stereo) [Example 7] | 3.3 mg/kg | 1.1 mg/kg |  |  |  |  |  | 
2 | CN1CC[C@H]2[C@@H](C1)c1cccc3c1N2CCS3 (relative stereo) [Example 6] | > 81 mg/kg | 7.2 mg/kg | 17 mg/kg |  |  |  |  | 
3 | CN(C)CCCN1c2ccccc2Sc2ccc(Cl)cc21 [Chlorpromazine · HCl, Chlorpromazine, reference compound] | > 81 mg/kg | > 81 mg/kg | 5.4 mg/kg | ~34 mg/kg |  |  |  | 
4 | c1cc2c3c(c1)[C@@H]1CN(C4CC4)CC[C@@H]1N3CCCS2 (relative stereo) [Example 9] | 68 mg/kg | 68 mg/kg |  |  |  |  |  | 
5 | c1cc2c3c(c1)[C@@H]1CNCC[C@@H]1N3CCS2 (relative stereo) [Example 5] | 0.4 mg/kg | 3.3 mg/kg | 1.1 mg/kg |  |  |  |  | 
6 | CC(C)N1CC[C@H]2[C@@H](C1)c1cccc3c1N2CCS3 (relative stereo) [Example 11] | 14 mg/kg | 11 mg/kg | 5.5 mg/kg |  |  |  |  | 
7 | Clc1ccc2c3c1[C@@H]1CNCC[C@@H]1N3CCO2 (relative stereo) [Example 2] | 27 mg/kg | 4.3 mg/kg | ~23 mg/kg | > 50 mg/kg |  |  |  | 
8 | CCN1CC[C@@H]2[C@@H](C1)c1cccc3c1N2CCS3 [Example 16, (+)-trans-8-Ethyl-1,2,6b, 7,8,9,10,10a-octahydropyrido[3',4':4,5]pyrrolo[1,2,3-de][1,4]benzothiazine] | 10.8 mg/kg | 7.5 mg/kg | 6.2 mg/kg |  |  |  |  | 
9 | c1cc2c3c(c1)[C@@H]1CN(C4CC4)CC[C@@H]1N3CCO2 (relative stereo) [Example 3] | 24 mg/kg | 21 mg/kg | 28 mg/kg |  |  |  |  | 
10 | CN(C)CCC=C1c2ccccc2CCc2ccccc21 [Amitriptyline · HCl, Amitriptyline, reference compound] |  |  |  |  | 116 mg/kg | 4.3 mg/kg | 1.6 mg/kg | 
11 | CN1CC[C@H]2[C@H](C1)c1cccc3c1N2CCS3 (relative stereo) [Example 18] | 6.5 mg/kg | 6.5 mg/kg | 28 mg/kg |  |  |  |  | 
12 | c1cc2c3c(c1)[C@@H]1CNCC[C@@H]1N3CCO2 (relative stereo) [Example 1, (+)-cis-1,2,6b,7,8,9,10,10a-Octahydropyrido[3', 4': 4,5]pyrrolo[1,2,3,-de][1,4]benzoxazine] | 23 mg/kg | 1.4 mg/kg | 2.2 mg/kg | > 25 mg/kg |  |  |  | 
13 | CC1CN2c3c(cccc3[C@@H]3CNCC[C@@H]32)S1 (stereo partly drawn) [Example 10] | 27 mg/kg | 23 mg/kg | 8.5 mg/kg | ~38 mg/kg |  |  |  | 
14 | c1cc2c3c(c1)[C@@H]1CNCC[C@@H]1N3CCCS2 (relative stereo) [Example 8] |  |  |  |  |  |  |  | active subcutaneously at 30 mg/kg
15 | c1cc2c3c(c1)[C@@H]1CNCC[C@@H]1N3CCCS2 (relative stereo) [Example 8a] | 54 mg/kg | 6.6 mg/kg | 2.2 mg/kg |  |  |  |  | 
16 | c1cc2c3c(c1)[C@@H]1CNCC[C@@H]1N3CCCO2 (relative stereo) [Example 4] | 47 mg/kg | 1.6 mg/kg | 2.2 mg/kg | 14 mg/kg |  |  |  | 
17 | CCCCN1CC[C@H]2[C@@H](C1)c1cccc3c1N2CCS3 (relative stereo) [CH2, S, n-C4H9, H, cis] | 14 mg/kg | 11 mg/kg | 5.5 mg/kg |  |  |  |  | 
18 | c1cc2c3c(c1)[C@H]1CN(C4CC4)CC[C@@H]1N3CCO2 (relative stereo) [Example 17] | 11.2 mg/kg | 7.5 mg/kg |  |  |  |  |  | 
